Starred links: 1 amine or outer side, 2 acyl side, 3 side chain; linkers in the order of their positions; H or OH if unused. Positions of bridges follow the written chain, without caps; N, C: chain ends. Non-standard residues stand in square brackets, D forms with d. Residues, ends and D or L forms follow the SMILES beside them. *: point of attachment. dβ3hPhg = O=C(C[C@H](N[*:1])c1ccccc1)[*:2]; Phe(3-Cl) = N[C@@H](Cc1cccc(Cl)c1)C(=O)O; Phe(4-F) = N[C@@H](Cc1ccc(F)cc1)C(=O)O; 2Nal = N[C@@H](Cc1ccc2ccccc2c1)C(=O)O; Bta = N[C@@H](Cc1csc2ccccc12)C(=O)O; Hyp = O=C(O)[C@@H]1C[C@@H](O)CN1; d(hLeu) = CC(C)CC[C@@H](N)C(=O)O; Cha = N[C@@H](CC1CCCCC1)C(=O)O; dCha = N[C@H](CC1CCCCC1)C(=O)O; Chg = N[C@H](C(=O)O)C1CCCCC1; NMeS = CN[C@@H](CO)C(=O)O; Nle = CCCC[C@H](N)C(=O)O; Orn = NCCC[C@H](N)C(=O)O; Aze = O=C(O)[C@@H]1CCN1; Ms = CS(=O)(=O)*
The compounds below were run against T1, human C5aR(CD88) (Homo sapiens, UniProt P21730) (assay: Determination of the IC50 value in an enzyme release assay (functional assay, antagonistic activity)). Settings: antagonistic activity; IC50 group in enzyme release assay, RBL cells expressing human C5aR(CD88); read-out: activity (group).
T1 construct: expressed in transfected cells; host or cells: rat basophilic leukemia cells (RBL)
T1 sequence (P21730 1-350): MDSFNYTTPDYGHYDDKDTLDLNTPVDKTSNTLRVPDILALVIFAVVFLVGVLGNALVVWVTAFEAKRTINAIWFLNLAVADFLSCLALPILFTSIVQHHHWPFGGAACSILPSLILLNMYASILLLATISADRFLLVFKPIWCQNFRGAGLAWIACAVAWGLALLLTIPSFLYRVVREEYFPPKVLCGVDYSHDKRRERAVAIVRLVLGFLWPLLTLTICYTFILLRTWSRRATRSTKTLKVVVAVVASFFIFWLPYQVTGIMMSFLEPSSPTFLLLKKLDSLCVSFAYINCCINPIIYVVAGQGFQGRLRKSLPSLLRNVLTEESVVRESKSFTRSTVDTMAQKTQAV
Type: cell-based

| SMILES | IC50 |
| --- | --- |
| CC(=O)N[C@@H](Cc1ccccc1)C(=O)N[C@@H](CCCN)C(=O)N1CCC[C@H]1C(=O)N[C@H](CC1CCCCC1)C(=O)N[C@@H](Cc1csc2ccccc12)C(=O)N[C@@H](Cc1cccc(Cl)c1)C(N)=O [Compound 254, Ac-Phe-Orn-Pro-cha-Bta-Mcf-NH2] (Ac-F[Orn]P[dCha][Bta][Phe(3-Cl)]-NH2) | 50 to 200 nM |
| CC(=O)N[C@@H](Cc1ccccc1)C(=O)N[C@@H](CCCN)C(=O)N1CCC[C@H]1C(=O)N[C@H](CCC(C)C)C(=O)N[C@@H](Cc1csc2ccccc12)C(=O)N[C@@H](Cc1ccc2ccccc2c1)C(N)=O [Compound 271, Ac-Phe-Orn-Pro-hle-Bta-2Ni—NH2] (Ac-F[Orn]P[d(hLeu)][Bta][2Nal]-NH2) | 50 to 200 nM |
| CC(=O)N[C@@H](Cc1ccccc1)C(=O)N[C@@H](CCCNS(C)(=O)=O)C(=O)N1CCC[C@H]1C(=O)N[C@H](CC1CCCCC1)C(=O)N[C@@H](Cc1csc2ccccc12)C(=O)N[C@@H](Cc1ccccc1)C(N)=O [Compound 227, Ac-Phe-G23-Pro-cha-Bta-Phe-NH2] (Ac-F[Orn](Ms)P[dCha][Bta]F-NH2) | 50 to 200 nM |
| CNC(=O)[C@H](Cc1ccccc1)NC(=O)[C@H](Cc1csc2ccccc12)NC(=O)[C@@H](CC1CCCCC1)NC(=O)[C@@H]1CCN1C(=O)[C@H](CCCN)NC(=O)[C@H](Cc1ccccc1)NC(C)=O [Compound 95, Ac-Phe-Orn-Aze-cha-Bta-Phe-NH—Me] (Ac-F[Orn][Aze][dCha][Bta]F-NHMe) | 200 to 2000 nM |
| CC(=O)N[C@@H](Cc1ccccc1)C(=O)N[C@@H](CCCN)C(=O)N[C@@H](CO)C(=O)N[C@H](CC1CCCCC1)C(=O)N[C@@H](Cc1c[nH]c2ccccc12)C(=O)N[C@@H](Cc1ccccc1)C(=O)O [Compound 117, Ac-Phe-Orn-Ser-cha-Trp-Phe-OH] (Ac-F[Orn]S[dCha]WF-OH) | 200 to 2000 nM |

Results, then the compound that gave them:

| IC50 | SMILES |
| --- | --- |
| 50 to 200 nM | CCCC[C@@H]1NC(=O)[C@H](Cc2c[nH]c3ccccc23)NC(=O)[C@@H](CCC(C)C)NC(=O)[C@@H]2C[C@@H](O)CN2C(=O)[C@@H](NC(=O)C[C@H](N)c2ccccc2)CCCNC1=O [Compound 344, H-Eby-[Orn-Hyp-hle-Trp-Nle]] (dβ3hPhg-[Orn][Hyp][d(hLeu)]W[Nle]; lactam 1-C) |
| 50 to 200 nM | CC(=O)N[C@@H](Cc1ccccc1)C(=O)N[C@@H](CCCN)C(=O)N(C)[C@@H](CO)C(=O)N[C@H](CC1CCCCC1)C(=O)N[C@@H](Cc1csc2ccccc12)C(=O)N[C@@H](Cc1ccccc1)C(N)=O [Compound 247, Ac-Phe-Orn-NMS-cha-Bta-Phe-NH2] (Ac-F[Orn][NMeS][dCha][Bta]F-NH2) |
| 50 to 200 nM | CC(=O)N[C@@H](Cc1ccccc1)C(=O)N[C@@H](CCCN)C(=O)N1CCC[C@H]1C(=O)N[C@H](CCC(C)C)C(=O)N[C@@H](Cc1ccc(F)cc1)C(=O)N[C@@H](CC1CCCCC1)C(N)=O [Compound 298, Ac-Phe-Orn-Pro-hle-Pff-Cha-NH2] (Ac-F[Orn]P[d(hLeu)][Phe(4-F)][Cha]-NH2) |
| 50 to 200 nM | CC(=O)N[C@@H](Cc1ccccc1)C(=O)N[C@@H](CCCN)C(=O)N1CCC[C@H]1C(=O)N[C@H](CCC(C)C)C(=O)N[C@@H](Cc1csc2ccccc12)C(=O)N[C@H](C(N)=O)C1CCCCC1 [Compound 275, Ac-Phe-Orn-Pro-hle-Bta-Chg-NH2] (Ac-F[Orn]P[d(hLeu)][Bta][Chg]-NH2) |
| 20 to 50 nM | CC(=O)N1C[C@H](O)C[C@H]1C(=O)N[C@@H](Cc1ccccc1)C(=O)N[C@@H](CCCN)C(=O)N1CC[C@H]1C(=O)N[C@H](CC1CCCCC1)C(=O)N[C@@H](Cc1csc2ccccc12)C(=O)N[C@@H](Cc1ccccc1)C(N)=O [Compound 159, Ac-Hyp-Phe-Orn-Aze-cha-Bta-Phe-NH2] (Ac-[Hyp]F[Orn][Aze][dCha][Bta]F-NH2) |
| 20 to 50 nM | CCCC[C@@H]1NC(=O)[C@H](Cc2ccc(F)cc2)NC(=O)[C@@H](CCC(C)C)NC(=O)[C@H](CO)NC(=O)[C@@H](NC(=O)[C@@H](N)Cc2ccccc2)CCCNC1=O [Compound 388, H-Phe-[Orn-Ser-hle-Pff-Nle]] (H-F[Orn]S[d(hLeu)][Phe(4-F)][Nle]; lactam 2-C) |

Source: patent publication US20080161232A1, “C5a Receptor Antagonist” (JERINI AG, priority 2005, published 2008)
